# Data: patent publication US9796707B2, “Piperazine derivatives for treating disorders” (The University of Nottingham, priority 2014, dated 2017)
# B1: Lucentis: novel humanized anti-VEGF antibody fragment (antibody, chains of the INN, looked up, V domains shown)
# VH: EVQLVESGGGLVQPGGSLRLSCAASGYDFTHYGMNWVRQAPGKGLEWVGWINTYTGEPTYAADFKRRFTFSLDTSKSTAYLQMNSLRAEDTAVYYCAKYPYYYGTSHWYFDVWGQGTLVTVSS
# VL: DIQLTQSPSSLSASVGDRVTITCSASQDISNYLNWYQQKPGKAPKVLIYFTSSLHSGVPSRFSGSGSGTDFTLTISSLQPEDFATYYCQQYSTVPWTFGQGTKVEIK
# modifications: Fab
# notes: novel humanized anti-VEGF antibody fragment
# Tests used:
# [1] = Scleral permeability, modified Ussing chamber; format: in vitro ADME; conditions: rabbit
# Experimental: Scleral permeability was measured using a modified Ussing chamber assembly in isotonic assay buffer (pH 7.4). Rabbit or porcine excised eye tissues were mounted in the chambers such that the episcleral side faced the donor chamber and the retinal side faced the receiver chamber. The chambers were filled with equal volumes of assay buffer, with (donor side) or without (receiver side) 1 μg/ml compound. After 4 or 24 hours tissue was removed from the chamber and the receiver side (“vitreous”) sampled. Tissue was dissected into sclera, choroid/RPE, and retina and homogenised.
# After 0, 4 or 24 hours, the fluid from the bottom chamber (vitreous) and the retinal tissue was isolated and compounds purified by acetonitrile extraction and HPLC.
# [2] = system: choroidal neovascularisation; conditions: mouse CNV, eye drops, previously shown; cited from earlier work
# [3] = format: cell-based
# Excerpt: To test whether compounds of Formula (I) are safe to administer to patients we began a basic safety test of these compounds in vitro.
# [4] = system: SRSF1 nuclear localisation in MDA-MB231 cells; experiment: SRSF1 localisation by immunofluorescence
# [5] = Half life in human liver microsomes
# Excerpt: We also tested the half life of these compounds when exposed to human liver microsomes.
# [6] = mouse, in vivo
# Experimental: Mice were treated for six days with 2 μg per eye SPHINX31 as eye drops, and ERG carried out using a Micron IV Ganzfield ERG system as recommended by the manufacturers instructions.
# Scotopic ERG recordings were taken in dark adapted animals following stimulation with increasing intensities of green (FIGS. 20A, 20C, 20E, 20G) light (to activate M-cones and rods) or UV (FIGS. 20B, 20D, 20F, 20H) light (to activate S-cones and rods). […] ERG amplitude at different intensities of green (FIGS. 20C, 20E) or UV (FIGS. 20D, 20F) are shown for the A wave (FIGS. 20C, 20D) and B wave (FIGS. 20E, 20F).
# [7] = system: SRSF1 nuclear localisation in PC3 prostate cancer cells; experiment: SRSF1 localisation by immunofluorescence
# neovascular AMD = conditions: 0.5 mg monthly, at one year; cited from earlier work
molecule,measurement,setting,value
O=C(Nc1cc(C(F)(F)F)ccc1N1CCN(Cc2cccnc2)CC1)c1ccc(-c2ccncc2)o1 [Compound 13],solubility in water of salt forms,Solubility in water,more freely soluble in water
Cc1ccc(Nc2nccc(N(C)c3ccc4c(C)n(C)nc4c3)n2)cc1S(N)(=O)=O [pazopanib],detection in retina,[1]; 4 hrs,could not
same,detection in vitreous (bottom chamber),[1]; 4 hrs,could not
same,detection in vitreous (bottom chamber),[1]; 24 hours,detected
O=C(Nc1cc(C(F)(F)F)ccc1N1CCCCC1)c1ccncc1 [SRPIN340],eye drop concentration of maximum effect,[2],10 µg/mL
O=C(Nc1cc(C(F)(F)F)ccc1N1CCN(Cc2ccncc2)CC1)c1ccc(-c2ccncc2)o1 [Compound 14],solubility in water of salt forms,Solubility in water,more freely soluble in water
CN(C)CCN1CCN(c2ccc(C(F)(F)F)cc2NC(=O)c2ccc(-c3ccncc3)o2)CC1 [SPHINX7],toxic doses,[3],greater than 10 μM
Cc1ccc(C(=O)Nc2cc(C(F)(F)F)ccc2N2CCOCC2)o1 [SPHINX],eye drop concentration of maximum effect,[2],10 µg/mL
O=C(Nc1cc(C(F)(F)F)ccc1N1CCN(Cc2ccccn2)CC1)c1ccc(-c2ccncc2)o1 [Compound 12],solubility in water of salt forms,Solubility in water,more freely soluble in water
same,SRSF1 localisation,[4],inhibited cellular localisation
same,Half life,[5],1.025 h
same,effect on scotopic or photopic activity,[6],No effect
same,SRSF1 localisation,[7],inhibited cellular localisation
B1,patients who maintained visual acuity (loss of <15 letters),neovascular AMD,approximately 95%
same,patients with improved vision (gain of ≧15 letters),neovascular AMD,≤ 40%
